In patent US7872134B2, “2-{[2-(substituted amino)ethyl]sulfonyl}ethyl N,N-bis(2-chloroethyl)phosphorodiamidates” (Telik, Inc., priority 2007, dated 2011):

What was measured:
[1] = test system: DLD-1 (colorectal adenocarcinoma); assay: Cytotoxicity/Growth Inhibition Assay (CellTiter-Glo); format: cell-based; details: Homo sapiens, 96 h, DLD-1 cells, hydrochloride salts, cultured 4 days
Description: The following examples illustrate the beneficial effect of the compounds of this invention against human cancer cell lines in vitro.
The human cancer cell line DLD-1 (colorectal adenocarcinoma) was obtained from the American Type Culture Collection, Manassas, Va., U.S.A. The CellTiter-Glo assay kit was obtained from Promega Corporation, Madison, Wis., U.S.A. All products were used in accordance with manufacturer's directions. All assays were conducted in triplicate wells, with dimethyl sulfoxide (DMSO) solvent control. The extent of cell growth was expressed as a percentage of the signal from the solvent control wells.
Log-phase cells were trypsinized, collected by centrifugation, and resuspended in a small volume of fresh medium, and the density of viable cells was determined following Trypan Blue staining. Cells were diluted in fresh media (3×10^3 cells/mL for DLD-1), and added at 150 μL/well to 96-well plates, and incubated for several hours to allow attachment in the case of adherent cells. […] After incubation for 10 minutes at room temperature, and the plate was read with a luminometer.

MIA PaCa-2 tumor = assay: MiaPaCa-2 Xenograft Assay, Intraperitoneal Administration; format: in vivo, athymic nu/nu mice; details: for tumor mass inhibition relative to vehicle: autopsy day 19 after transplantation
Description: Male athymic nu/nu mice, 6-8 weeks old (approximately 20 g), were implanted subcutaneously in the right fore flank with 20-30 mg pieces of MIA PaCa-2 tumor harvested from similar nu/nu mice that had previously been implanted with the MIA PaCa-2 tumor. […] A group of mice was treated with compound 1A as the hydrochloride salt dissolved in aqueous 5% dextrose, at 100 mg/Kg by intraperitoneal injection once/day for 5 consecutive days; with vehicle and cyclophosphamide (30 mg/Kg) also administered by intraperitoneal injection for the same time. Tumor mass was estimated from volume on days 10, 13, and 17; and measured at autopsy on day 19 after transplantation.

Row | SMILES | IC50 [1] | tumor mass inhibition relative to vehicle (MIA PaCa-2 tumor; 100 mg/Kg intraperitoneal once/day for 5 consecutive days, hydrochloride salt) | safety at the dose tested (MIA PaCa-2 tumor; nu/nu mice, 100 mg/Kg intraperitoneal once/day for 5 days) | tumor mass inhibition relative to vehicle (MIA PaCa-2 tumor; 30 mg/Kg intraperitoneal once/day for 5 consecutive days)
1 | CCN(CC)CCS(=O)(=O)CCOP(N)(=O)N(CCCl)CCCl (centres unmarked) [compound 1A, 2-{[2-(diethylamino)ethyl]sulfonyl}ethyl N,N-bis(2-chloroethyl)phosphorodiamidate] | 13 µM | 83% | safe and non-toxic | 
2 | O=P1(N(CCCl)CCCl)NCCCO1 (centres unmarked) [cyclophosphamide, reference compound] |  |  |  | 84%
3 | N[C@@H](CCC(=O)N[C@@H](CS(=O)(=O)CCOP(=O)(N(CCCl)CCCl)N(CCCl)CCCl)C(=O)N[C@@H](C(=O)O)c1ccccc1)C(=O)O [canfosfamide, reference compound] | 11 µM |  |  | 
